Measured values published in US20090137664A1, “SAURURUS CERNUUS COMPOUNDS THAT INHIBIT CELLULAR RESPONSES TO HYPOXIA” (priority 2003, published 2009).

Legend:
secreted VEGF protein = test: hypoxic induction of secreted VEGF protein in T47D cells (ELISA); assay type: cell-based, human
Description: The effects of compounds 1 and 2 on hypoxic induction of secreted VEGF protein are examined in T47D cells. Exponentially grown T47D cells are plated at the density of 30,000 cells/well into 96-well plates. Compound treatment and hypoxic exposure are the same as described. Following incubation, the concentration of secreted VEGF protein in the conditioned media is determined by ELISA (R & D Systems) and the data normalized by the number of viable cells. Results shown in FIG. 4 are averages from a representative experiment performed in quadruplicate, the bars represent standard error. An asterisk (*) indicates the level of significance (p<0.01) relative to the hypoxic control, two asterisks (**) (p<0.0001), and no asterisk indicates no statistical difference (ANOVA and Fisher's PLSD post hoc test).
As discussed earlier, one important HIF-1 target gene is VEGF, a key factor for tumor angiogenesis. Compounds that can inhibit both HIF-1 activation and the production of secreted VEGF protein represent potential efficacious chemotherapeutic agents that inhibit both tumor survival and hypoxia induced angiogenesis. The effects of four active examples (compounds 2, 3, 4, and 5) on hypoxic induction of secreted VEGF protein are examined in T47D cells and the data are presented in FIG. 9. Exponentially grown T47D cells are plated at the density of 356,000 cells/well into 12-well plates. Compound treatment and hypoxic exposure are the same as described. Following incubation, the concentration of secreted VEGF protein in the conditioned media is determined by ELISA (R & D Systems) and the data normalized by the number of viable cells. […] Hypoxic exposure leads to a 2-fold increase in the level of secreted VEGF protein. […] The level of significance (p<0.01) is determined by ANOVA and Fisher's PLSD post hoc test. The exemplary compounds 2, 3, and 4 all completely block hypoxic induction of secreted VEGF protein at concentrations as low as 10 nM. The exemplary compound 5 inhibits the hypoxic induction by 60% at 10 nM, and completely blocks at 100 nM. When tested at 100 nM, none of the compounds interfere with the ELISA assay using VEGF standard (no greater than 15% difference).

K-562 = test: NCI in vitro cell line screen (SRB), Leukemia K-562; assay type: cell-based
Description: (§1) For exemplary purposes, an embodiment of the present invention was tested for activity with respect to certain cancer cell lines. The following Tables show results from in vitro 60-cell line antitumor testing from the US National Cancer Institute Developmental Therapeutics Program (NCI-DTP) on compound 2. The testing was in connection with the NCI's In Vitro Cell Line Screening Project (IVCLSP). Detailed information regarding the experiments and their interpretation is available from the NCI.

NCI-H460 = test: NCI in vitro cell line screen (SRB), Non-Small Cell Lung Cancer NCI-H460; assay type: cell-based
Description: as §1

NCI-H522 = test: NCI in vitro cell line screen (SRB), Non-Small Cell Lung Cancer NCI-H522; assay type: cell-based
Description: as §1

U251 = test: NCI in vitro cell line screen (SRB), CNS Cancer U251; assay type: cell-based
Description: as §1

M14 = test: NCI in vitro cell line screen (SRB), Melanoma M14; assay type: cell-based
Description: as §1

OVCAR-3 = test: NCI in vitro cell line screen (SRB), Ovarian Cancer OVCAR-3; assay type: cell-based
Description: as §1

MDA-MB-435 = test: NCI in vitro cell line screen (SRB), Breast Cancer MDA-MB-435; assay type: cell-based
Description: as §1

[1] = Homo sapiens, read-out: LC50 (the source's name)

For `COc1ccc([C@@H](O)[C@@H](C)Oc2ccc([C@H]3O[C@H](c4ccc(O[C@H](C)[C@H](O)c5ccc6c(c5)OCO6)c(OC)c4)[C@H](C)[C@H]3C)cc2OC)cc1OC` [Compound 2, manassantin B], the “inhibition of VEGF protein levels relative to the hypoxia-induced positive control” value (secreted VEGF protein; 12-well, p<0.01) was “significantly inhibit”, the “reduction of secreted VEGF protein induced by hypoxia” value (secreted VEGF protein; 96-well, 1 at 100 nM, 2 at 10 nM, PD98059 at 100 μM) was “statistically significant reduction” and the “relative potency in reducing the level of secreted VEGF protein” value (secreted VEGF protein; hypoxia) was “ten times more potent than 1”. The TGI (K-562) was over 1.00E−4 Molar, the LC50 (concentration killing 50% of cells) (K-562; Homo sapiens, K562) was over 100 µM and the “Mean Optical Densities” value (K-562; Log10 Concentration −4.0 Molar) was 0.327. The “Percent Growth” value (K-562; Log10 Concentration −4.0 Molar) was 28%, the “Mean Optical Densities” value (K-562; Log10 Concentration −5.0 Molar) was 0.394 and the “Percent Growth” value (K-562; Log10 Concentration −5.0 Molar) was 37%. The “Mean Optical Densities” value (K-562; Log10 Concentration −6.0 Molar) was 0.561, the “Percent Growth” value (K-562; Log10 Concentration −6.0 Molar) was 61% and the “Mean Optical Densities” value (K-562; Log10 Concentration −7.0 Molar) was 0.500. For the same molecule, the “Percent Growth” value (K-562; Log10 Concentration −7.0 Molar) was 53%, the “Mean Optical Densities” value (K-562; Log10 Concentration −8.0 Molar) was 0.470 and the “Percent Growth” value (K-562; Log10 Concentration −8.0 Molar) was 48%. The TGI (NCI-H460) was over 1.00E−4 Molar, the GI50 (NCI-H460; Homo sapiens) was 2.12 µM and the LC50 (concentration killing 50% of starting cells) (NCI-H460; Homo sapiens) was over 100 µM. For the same molecule, the “Mean Optical Densities” value (NCI-H460; Log10 Concentration −4.0 Molar) was 0.285, the “Percent Growth” value (NCI-H460; Log10 Concentration −4.0 Molar) was 11% and the “Mean Optical Densities” value (NCI-H460; Log10 Concentration −5.0 Molar) was 0.492. The “Percent Growth” value (NCI-H460; Log10 Concentration −5.0 Molar) was 28%, the “Mean Optical Densities” value (NCI-H460; Log10 Concentration −6.0 Molar) was 0.895 and the “Percent Growth” value (NCI-H460; Log10 Concentration −6.0 Molar) was 61%. For the same molecule, the “Mean Optical Densities” value (NCI-H460; Log10 Concentration −7.0 Molar) was 1.030, the “Percent Growth” value (NCI-H460; Log10 Concentration −7.0 Molar) was 72% and the “Mean Optical Densities” value (NCI-H460; Log10 Concentration −8.0 Molar) was 1.011. For the same molecule, the “Percent Growth” value (NCI-H460; Log10 Concentration −8.0 Molar) was 70%, the TGI (NCI-H522) was over 1.00E−4 Molar and the GI50 (NCI-H522; Homo sapiens) was 3.38 µM. For the same molecule, the CC50 (NCI-H522; [1]) was over 100 µM, the “Mean Optical Densities” value (NCI-H522; Log10 Concentration −4.0 Molar) was 0.760 and the “Percent Growth” value (NCI-H522; Log10 Concentration −4.0 Molar) was 9%. The “Mean Optical Densities” value (NCI-H522; Log10 Concentration −5.0 Molar) was 0.919, the “Percent Growth” value (NCI-H522; Log10 Concentration −5.0 Molar) was 35% and the “Mean Optical Densities” value (NCI-H522; Log10 Concentration −6.0 Molar) was 1.119. For the same molecule, the “Percent Growth” value (NCI-H522; Log10 Concentration −6.0 Molar) was 67%, the “Mean Optical Densities” value (NCI-H522; Log10 Concentration −7.0 Molar) was 1.099 and the “Percent Growth” value (NCI-H522; Log10 Concentration −7.0 Molar) was 64%. For the same molecule, the “Mean Optical Densities” value (NCI-H522; Log10 Concentration −8.0 Molar) was 1.087, the “Percent Growth” value (NCI-H522; Log10 Concentration −8.0 Molar) was 62% and the TGI (U251) was 7.27E−5 Molar. For the same molecule, the GI50 (U251; Homo sapiens, U-251) was under 0.01 µM, the CC50 (U251; Homo sapiens, U-251, read-out: LC50 (the source's name)) was over 100 µM and the “Mean Optical Densities” value (U251; Log10 Concentration −4.0 Molar) was 0.267. The “Percent Growth” value (U251; Log10 Concentration −4.0 Molar) was −2%, the “Mean Optical Densities” value (U251; Log10 Concentration −5.0 Molar) was 0.335 and the “Percent Growth” value (U251; Log10 Concentration −5.0 Molar) was 15%. For the same molecule, the “Mean Optical Densities” value (U251; Log10 Concentration −6.0 Molar) was 0.418, the “Percent Growth” value (U251; Log10 Concentration −6.0 Molar) was 35% and the “Mean Optical Densities” value (U251; Log10 Concentration −7.0 Molar) was 0.444. For the same molecule, the “Percent Growth” value (U251; Log10 Concentration −7.0 Molar) was 41%, the “Mean Optical Densities” value (U251; Log10 Concentration −8.0 Molar) was 0.443 and the “Percent Growth” value (U251; Log10 Concentration −8.0 Molar) was 41%. It also gave a TGI (M14) of over 1.00E−4 Molar, a GI50 (M14; Homo sapiens) of 4.19 µM and a CC50 (M14; [1]) of over 100 µM. For the same molecule, the “Mean Optical Densities” value (M14; Log10 Concentration −4.0 Molar) was 0.439, the “Percent Growth” value (M14; Log10 Concentration −4.0 Molar) was 12% and the “Mean Optical Densities” value (M14; Log10 Concentration −5.0 Molar) was 0.521. For the same molecule, the “Percent Growth” value (M14; Log10 Concentration −5.0 Molar) was 30%, the “Mean Optical Densities” value (M14; Log10 Concentration −6.0 Molar) was 0.764 and the “Percent Growth” value (M14; Log10 Concentration −6.0 Molar) was 83%. The “Mean Optical Densities” value (M14; Log10 Concentration −7.0 Molar) was 0.843, the “Percent Growth” value (M14; Log10 Concentration −7.0 Molar) was 100% and the “Mean Optical Densities” value (M14; Log10 Concentration −8.0 Molar) was 0.809. For the same molecule, the “Percent Growth” value (M14; Log10 Concentration −8.0 Molar) was 93%, the TGI (OVCAR-3) was 4.32E−6 Molar and the GI50 (OVCAR-3; Homo sapiens) was 0.627 µM. The CC50 (OVCAR-3; [1]) was over 100 µM, the “Mean Optical Densities” value (OVCAR-3; Log10 Concentration −4.0 Molar) was 0.367 and the “Percent Growth” value (OVCAR-3; Log10 Concentration −4.0 Molar) was −36%. For the same molecule, the “Mean Optical Densities” value (OVCAR-3; Log10 Concentration −5.0 Molar) was 0.465, the “Percent Growth” value (OVCAR-3; Log10 Concentration −5.0 Molar) was −19% and the “Mean Optical Densities” value (OVCAR-3; Log10 Concentration −6.0 Molar) was 0.616. For the same molecule, the “Percent Growth” value (OVCAR-3; Log10 Concentration −6.0 Molar) was 33%, the “Mean Optical Densities” value (OVCAR-3; Log10 Concentration −7.0 Molar) was 0.722 and the “Percent Growth” value (OVCAR-3; Log10 Concentration −7.0 Molar) was 117%. For the same molecule, the “Mean Optical Densities” value (OVCAR-3; Log10 Concentration −8.0 Molar) was 0.679, the “Percent Growth” value (OVCAR-3; Log10 Concentration −8.0 Molar) was 83% and the TGI (MDA-MB-435) was over 1.00E−4 Molar. The GI50 (MDA-MB-435; Homo sapiens) was 1.88 µM, the CC50 (MDA-MB-435; [1]) was over 100 µM and the “Mean Optical Densities” value (MDA-MB-435; Log10 Concentration −4.0 Molar) was 0.534. The “Percent Growth” value (MDA-MB-435; Log10 Concentration −4.0 Molar) was 1%, the “Mean Optical Densities” value (MDA-MB-435; Log10 Concentration −5.0 Molar) was 0.605 and the “Percent Growth” value (MDA-MB-435; Log10 Concentration −5.0 Molar) was 10%. For the same molecule, the “Mean Optical Densities” value (MDA-MB-435; Log10 Concentration −6.0 Molar) was 1.079, the “Percent Growth” value (MDA-MB-435; Log10 Concentration −6.0 Molar) was 65% and the “Mean Optical Densities” value (MDA-MB-435; Log10 Concentration −7.0 Molar) was 1.179. The “Percent Growth” value (MDA-MB-435; Log10 Concentration −7.0 Molar) was 77%, the “Mean Optical Densities” value (MDA-MB-435; Log10 Concentration −8.0 Molar) was 1.122 and the “Percent Growth” value (MDA-MB-435; Log10 Concentration −8.0 Molar) was 70%.
